Series [1] has as its system HMG-CoA reductase expression in HepG2 cells. Briefly: Western blot of HMG-CoA reductase expression in HepG2 cells in cholesterol-free media. It counts as cell-based. Particulars: 10 uM synthetic lunasin, 24 hours, cholesterol-free media 24 hours. The protocol: (§1) FIG. 2 is a photograph of a Western blot analysis (top) and a table (below) showing densitometer values indicating the relative levels of expression of HMG-CoA reductase in HepG2 cells that were (CFM+LS (24)) or were not (CFM) treated with lunasin for 24 hours prior to incubation in cholesterol free media (CFM) for 24 hours to activate sterol regulatory element binding proteins (SREBP.) After incubations, total protein was extracted and 10 ug protein was loaded onto 10% Tris-glycine gels, electroblotted onto nitrocellulose membrane, and immunostained with primary antibodies raised against HMG-CoA reductase and actin (to show equal loading of proteins.) Spot densitometer values represent mean and standard deviation of data from three separate experiments.
In the first experiment, HepG2 cells (1×10^6) were treated with or without 10 uM synthetic lunasin in DMEM with 10% FBS for 24 hours before growth media was replaced with cholesterol-free media to activate SREBP. After 24 hours, total protein was extracted and 10 ug protein was loaded onto 10% Tris-glycine gels, electroblotted onto nitrocellulose membrane, and immunostained with primary antibodies raised against HMG-CoA reductase and actin (to show equal loading of proteins). […]
A general note: Immunoblotting shows a protein as a band on a membrane.

In series [2] the test system is LDL-receptor expression in HepG2 cells. Briefly: Western blot of LDL receptor expression in HepG2 cells in cholesterol-free media. The class given is cell-based. Particulars: 10 uM synthetic lunasin, 24 hours, cholesterol-free media 24 hours. The protocol:
as §1, with “FIG. 3” for “FIG. 2”, “of LDL receptor” for “of HMG-CoA reductase”, “were (CFM +LS(24))” for “were (CFM+LS (24))”, “activate SREBP.” for “activate sterol regulatory element binding proteins (SREBP.)”, “against LDL-receptor” for “against HMG-CoA reductase”
In the second experiment, HepG2 cells (1×10^6) were treated with or without 10 uM synthetic lunasin in DMEM with 10% FBS for 24 hours before growth media is replaced with cholesterol-free media to activate SREBP. After 24 hours, total protein was extracted and 10 ug proteins loaded onto 10% Tris-glycine gels, electroblotted onto nitrocellulose membrane, and immunostained with primary antibodies raised against LDL-receptor and actin (to show equal loading of proteins). Spot densitometer values were obtained by digital scanning and Un-Scan It software, and represent mean and standard deviation of data from three separate experiments.

Series [3] has as its system Sp1 expression in HepG2 cells. Briefly: Western blot of Sp1 levels in HepG2 cells. It counts as cell-based. Conditions: 10 uM synthetic lunasin, one experiment. The protocol:
FIG. 4 is a photograph of a Western blot analysis (top) and a table (below) showing densitometer values indicating the relative levels of expression of Sp1 in HepG2 cells that were grown from confluence in growth media for 24 hours before growth media was replaced with fresh growth media (Media), media with lunasin (Media+LS) or cholesterol free media with lunasin (CFM+LS) or without lunasin (CFM). Samples were then incubated for 24 or 48 hours as indicated. […]
Unlike HMG-CoA reductase, SREBP activation of LDL-receptor by sterol depletion requires increased recruitment of Sp1 co-activator to a site adjacent to SREBP in the promoter/regulatory sequence of LDL-receptor gene (25). […] To test this hypothesis, the level of Sp1 was determined in lunasin-treated growth media and cholesterol-free media by Western analysis using Sp1 antibody, as follows: HepG2 cells (1×10^6) were grown from confluence in DMEM with 10% FBS for 24 hours before growth media was replaced with fresh growth media or cholesterol-free media (to activate SREBP) and treated with, or without 10 uM synthetic lunasin. […]

In series [4] the test system is tumor formation in mammalian cells. Conditions: 1,000 nM (5 μg/ml) to 10,000 nM (50 μg/ml) lunasin; cited from earlier work.
The subject of series [5] is histone H3 acetylation by PCAF. Briefly: PCAF HAT bioactivity assay, core histones from chicken erythrocyte as template. The class given is biochemical. Particulars: around 10 ug sample protein with 1 ug core histones; versus untreated control. The procedure: Lunasin-enriched soy concentrate with soy flour (LeSC+SF) retains bioactivity even when digested with digestive enzymes. Biological activity of LeSC (A), LeSC+SF (B), digested LeSC+SF (C), digested LeSC (D), digested soy protein isolate (E) and digested soy concentrate (F) was measured using the H3 histone acetyltransferase (HAT) assay (see Example 8.) Around 100 mg total protein of LeSC, LeSC+SF, soy protein isolate and soy concentrate were digested by mixing pancreatin (Sigma Life Sciences, Saint Louis, Mo.) at 1:1 (w/w) and incubating for 30 min. at 40° C. To confirm that the HAT assay is working, treatment with synthetic lunasin (+synL) was included. Synthetic lunasin reduced acetylation of histone H3 by the histone acetylase enzyme, PCAF, using core histones isolated from chicken erythrocyte (Upstate/Millipore, Billerica, Mass.) as template for the HAT assay. […]
Core histones purified from chicken erythrocyte cells were used as templates in histone acetylase (HAT) reactions using PCAF histone acetylase enzyme, in the presence or absence of around 2-10 uM lunasin. […] Chemiluminescent signals from antibody complexes were visualized using standard chemiluminescent reagents and exposed to Kodak BioMAX film, developed and spot densitometer measured by using digital scanner and UN-SCAN-IT software program from Silk Scientific (Orem, Utah).

In series [6] the test system is histone H3 acetylation by PCAF. Briefly: PCAF histone acetylase (HAT) assay, core histones from HeLa cells as template, immunoblot. It counts as biochemical. The protocol:
Acid extracted protein from untreated (untrt) HeLa cells was used as template in histone acetylase reactions using HAT enzyme, PCAF, in the presence or absence of 10 uM lunasin. Reaction products were immunoblotted and stained with antibodies against diacetylated histone H3. Untrt (−) is the histone template control, NaB (+) correspond to acid extracted histones from NaButyrate treated HeLa cells (positive control). […] Numbers in parenthesis indicate densitometer readings relative to the untreated control (set as 1) in PCAF HAT reaction products.
Acid extracted histones isolated from untreated (untrt) HeLa cells were used in PCAF HAT reactions, immunoblotted and stained with antibodies to H3 Ac-Lys9 and H3 Ac-Lys14. Untrt (−) is the histone template control, NaB (+) correspond to acid extracted histones from NaButyrate treated HeLa cells (posititve control), +Lun correspond to 10 uM lunasin treated histone template and −Lun correspond to non-lunasin treated. […] Numbers in parenthesis indicate densitometer readings relative to the signal level of lunasin/lunasin treatment (set as 1) in immunoblots stained with Ac-Lys14 H3.
[…] H3 histone acetylation by PCAF histone acetylase enzyme is required for the SREBP activation of genes involved in cholesterol biosynthesis including HMG-CoA reductase (9). Previous study has shown that lunasin is a potent inhibitor of histone H3 acetylation in mammalian cells exposed to the histone deacetylase inhibitor, sodium butyrate (NaB) (4). To determine the effect of lunasin on histone H3 acetylation by PCAF, HAT assay reaction using acid-extracted histones from untreated HeLa cells as template was conducted. […]
The HAT bioactivity assay was conducted using acid extracted core histones from HeLa cells (Upstate/Millipore) as a template (temp (−) control) for the PCAF catalyzed HAT reaction. […] The numbers below the legend indicate relative densitometer readings normalized using immunosignal from the template (temp). […]

For series [7] the following is noted: cited from earlier work.
Setting [8] is: 10 uM lunasin, acid-extracted histones from untreated HeLa cells.

Entries after “also recorded” stand apart in the source; their conditions may differ.

In the case of “lunasin: natural, synthetically or recombinantly obtained soybean lunasin polypeptide (SEQ. ID. 2), small subunit of a cotyledon-specific 2S albumin”, in series [1], the “reduction of HMG-CoA reductase expression” value is “more than 50%”. Also, the “increase of LDL-receptor expression” value in series [2] was “more than 60%”. Further, the “increase of Sp1 levels in cholesterol-free media” value in series [3] (cholesterol-free media) is roughly 60%. Besides, the “Sp1 levels, lunasin-treated versus control growth media” value in series [3] (growth media) is listed as “not significantly different”. Further, the “tumor reduction activity compared to the control group” value in series [4] was “statistically significant tumor reduction activity”. The “H3 acetylation by PCAF, undigested samples (Example 5)” value in series [5] is recorded as “significant reduction in H3 acetylation”. In addition, in series [6] (setting [8]), the “H3 Lys 14 acetylation by PCAF (antibodies to H3 Ac-Lys9 and H3 Ac-Lys14)” value is on record as “decreased H3 Lys 14 acetylation; also recorded: specifically binds to Lys 14, preventing it from being acetylated by PCAF”; the “histone H3 acetylation (diacetylated H3, Ac-Lys9+Ac-Lys14) by PCAF” value is “significant decrease in H3 acetylation; also recorded: dramatic reduction of histone H3 acetylation”. Moreover, in series [6] (core histones from HeLa cells as template), the “H3 acetylation by PCAF, undigested samples (Example 6)” value is given as “significant reduction in H3 acetylation”. Moreover, the water solubility entry in series [7] is given as “water soluble”.

The values are drawn from US20150306011A1, “METHODS FOR USING SOY PEPTIDES TO INHIBIT H3 ACETYLATION, REDUCE EXPRESSION OF HMG-COA REDUCTASE AND INCREASE LDL RECEPTOR AND SP1 EXPRESSION IN A MAMMAL” (priority 2014, published 2015).
